What was measured:
human leukemia K562 = test: MTT assay, K562 cells; format: cell-based; details: 48 h, aminoguanidine present, mean ± SD of three determinations, max 50 µM tested
Method: The cytotoxicities of the novel conjugates were assessed in vitro by the MTT assay in the presence of aminoguanidine (an inhibitor of amine oxidase) against three cell lines, human leukemia K562, cancer of colon HCT116 and human normal hepatocyte QSG-7701 [34]. […] Thus, compound 7f was selected for further investigation. Cell lines, K562, 7721 and HCT116 were obtained from American Type Culture Collection (ATCC, Shanghai, China). Cells were cultured in RPMI1640, supplemented with 10% heat-inactivated fetal calf serum (FCS), antibiotics (penicillin, 100 units/mL; streptomycin sulfate, 100 μg/mL) at 37 °C, in an atmosphere of 95% air and 5% CO2 under humidified conditions. Aminoguanidine (1 mM) was added as an inhibitor of amine oxidase derived from FCS and had no effect on the various parameters of the cell measured in this study. Chemosensitivity was assessed using the 3-(4,5-dimethylthiazol-2-yl)-2,5-diphenyltetrazolium bromide (MTT) assay. […] After incubation for 4 h at 37 °C, the purple formazan crystals (i.e., a reduced form of MTT) generated from viable cells were dissolved by adding 100 μL 10% sodium dodecyl sulphate (SDS) in each well. The absorbance of each well was then read at 570 nm.

cancer of colon HCT116 = test: MTT assay, HCT116 cells; format: cell-based; details: Homo sapiens, HCT-116, aminoguanidine present, mean ± SD of three determinations, max 50 µM tested
Method: (§1) The cytotoxicities of the novel conjugates were assessed in vitro by the MTT assay in the presence of aminoguanidine (an inhibitor of amine oxidase) against three cell lines, human leukemia K562, cancer of colon HCT116 and human normal hepatocyte QSG-7701 [34]. […] Thus, compound 7f was selected for further investigation. Cell lines, K562, 7721 and HCT116 were obtained from American Type Culture Collection (ATCC, Shanghai, China). Cells were cultured in RPMI1640, supplemented with 10% heat-inactivated fetal calf serum (FCS), antibiotics (penicillin, 100 units/mL; streptomycin sulfate, 100 μg/mL) at 37 °C, in an atmosphere of 95% air and 5% CO2 under humidified conditions. Aminoguanidine (1 mM) was added as an inhibitor of amine oxidase derived from FCS and had no effect on the various parameters of the cell measured in this study. In addition, exponentially growing HCT116 or 7721 cells were seeded into 96-well plates at 5000 cells/well and allowed to attach overnight, and then 100 μL of MTT (1 mg/mL) was added. After incubation for 4 h at 37 °C, the MTT solution was removed and the remaining formazan crystals were dissolved with 150 μL DMSO in each well. The absorbance of each well was then read at 570 nm.

[1] = test system: human normal hepatocyte QSG-7701; test: MTT assay, QSG-7701 cells; format: cell-based; details: QSG7701, aminoguanidine present, mean ± SD of three determinations, max 50 µM tested
Method: as §1

HepG2 cells = test: Cell cycle analysis by High Content Screening (PI staining); format: cell-based; details: HepG2, 20 μM, 48 h
Method: To reveal the cytotoxic mechanism of compound 7f, we ﬁrst examined its effects on the cell cycle perturbation. The DNA content analysis by High Content Screening (HCS) confirmed that 7f could induce HepG2 cell cycle perturbation (Figure 3).
Exponentially growing HepG2 cells were seeded in 96 well plates ([…]), cultured for 24 h and then treated with different concentrations of compound 7f for 48 h. After incubation for 48 h, cells were washed twice with ice-cold 10% PBS, fixed and permeabilized with ice-cold 70% ethanol at −20 °C overnight. The cells were treated with 50 μg/mL RNase A at room temperature for 30 min after washed with ice-cold PBS, and finally stained with 50 μg/mL propidium iodide (PI) in the dark at 4 °C for 30 min. The distribution of cell cycle phases with different DNA contents was read in image analysis system of high content screening living cells.

herring sperm DNA = test: Iodide (KI) fluorescence quenching in absence and presence of DNA; format: binding; details: KI quencher
Source text: A highly negatively charged quencher is expected to be repelled by the negatively charged phosphate backbone of DNA, therefore an intercalative bound drug molecules should be protected from being quenched by anionic quencher, but the free aqueous complexes or groove binding drugs should be quenched readily by anionic quenchers. At the same time, whether the quencher accesses to fluorophore also plays a role in free and bound one.
Negatively charged I^− was selected for this purpose. The quenching constants (Ksv) were obtained from the Stern–Volmer equation. […]
Solution of compound 7f (0.5 mL, 2.00 × 10^−4 mol/L and herring sperm DNA 0.5 mL ([…]) in Tris-HCl (pH = 7.4) were mixed with 0.0, 0.10, 0.20, 0.30, 0.60, 0.90 1.20, 1.50, 1.80, 2.10, 2.40, 2.70 and 3.00 of KI (2.0 × 10^−2 mol∙L^−1) respectively. Meanwhile, 0.5 mL solution of compound 7f (2.00 × 10^−4 mol/L was only mixed with 0.0, 0.10, 0.20, 0.30, 0.60, 0.90 1.20, 1.50, 1.80, 2.10, 2.40, 2.70 and 3.00 mL of KI (2.0 × 10^−2 mol∙L^−1) respectively. The mixture was diluted to 5 mL with Tris-HCl (pH = 7.4). Thus, samples were prepared in the concentration of KI at 0.0, 400, 800, 1,200, 2,400, 3,600, 4,800, 6,000, 7,200, 8,400, 9,600, 10,800, 12,000 × 10^−6 mol∙L^−1. […] Fluorescence wavelengths and intensity areas of samples were measured at following conditions: EX = 345 nm, EM = 355~600 nm.

IC50 (human leukemia K562): 18.9 ± 1.97 µM
IC50 (cancer of colon HCT116): 5.45 ± 1.71 µM
Ksv with I^− ion (herring sperm DNA; absence of DNA, 7f 20 × 10^−6 mol∙L^−1): 38.178 L/mol
Ksv with I^− ion (herring sperm DNA; presence of DNA 22.84 × 10^−6 mol∙L^−1, 7f 20 × 10^−6 mol∙L^−1): 31.575 L/mol
Structure (SMILES): Cl.Cl.NCCCCNCCCN1C(=O)c2cccc3cccc(c23)C1=O [Compound 7f, 2-[3-(4-Aminobutylamino)propyl]1H-benz-[de]isoquinoline-1,3(2H)-dione dihydrochloride]
IC50 [1]: 19.7 ± 3.42 µM
cells in G2/M phase (HepG2 cells): 49.8%
cells in G0/G1 phase (HepG2 cells; control 52.6%): 29.7%
